Experimental data as given in patent US10596109B2 (Abela Pharmaceuticals, Inc., priority 2009, dated 2020).
Where two headings read alike, the source gives them in different places.

Experiments:
S. pneumonia [1] = assay: Bacterial viability by bioluminescent ATP assay, 7 hours culture
S. pneumonia [2] = details: Streptococcus pneumonia, 7 h
S. pyogenes [3] = details: Streptococcus pyogenes, 18 h
S. pyogenes [4] = assay: Bacterial viability by bioluminescent ATP assay, 18 hours culture; details: MSM alone at 8%

In the case of `C[S+](C)[O-]` [DMSO, Dimethyl sulfoxide], the “Reduction in bacterial viability” value (S. pneumonia [1]; DMSO 5% alone) is reported as “approximately 25%”, the S. pneumonia viability (S. pneumonia [2]; 5 %) is reported as 75.45% and the S. pneumonia viability (S. pneumonia [2]; 10 %) is reported as 40.18%. It also gave a S. pyogenes viability (S. pyogenes [3]; 0.63 %) of 100%, a S. pyogenes viability (S. pyogenes [3]; 1.25 %) of 100% and a S. pyogenes viability (S. pyogenes [3]; 10 %) of 14.50%. It also gave a S. pyogenes viability (S. pyogenes [3]; 20 %) of 5.14% and a S. pyogenes viability (S. pyogenes [3]; […]) of 100%.

`CS(C)(=O)=O` [MSM, Methylsulfonylmethane] was tested, and the “Reduction in bacterial viability” value (S. pneumonia [1]; MSM 5% alone) was roughly 5%, the S. pneumonia viability (S. pneumonia [1]; MSM 10%) was 48.57% and the S. pneumonia viability (S. pneumonia [1]; MSM 20%) was 39.08%. For the same compound, the “Reduction in bacterial viability (estimated)” value (S. pyogenes [4]) was “approximately 89%”.
